# Reference: PMC9124820, “In vitro evaluation of fenfluramine and norfenfluramine as victims of drug interactions” (Pharmacology Research & Perspectives, 2022)
# What was measured:
# MATE1 = target: T1, MATE1 (Homo sapiens, UniProt Q96FL8); experiment: Transporter substrate determination, uptake in HEK293-MATE1 cells; assay type: in vitro ADME; conditions: for Maximum Ratio (uptake in transporter‐expressing cells to empty‐vector control cells): HEK293‐MATE1, 0.1, 1, 10 µM, threshold ≥2‐fold; for substrate of the transporter: MATE1
# T1 construct: host or cells: HEK293
# T1 sequence (Q96FL8 1-570): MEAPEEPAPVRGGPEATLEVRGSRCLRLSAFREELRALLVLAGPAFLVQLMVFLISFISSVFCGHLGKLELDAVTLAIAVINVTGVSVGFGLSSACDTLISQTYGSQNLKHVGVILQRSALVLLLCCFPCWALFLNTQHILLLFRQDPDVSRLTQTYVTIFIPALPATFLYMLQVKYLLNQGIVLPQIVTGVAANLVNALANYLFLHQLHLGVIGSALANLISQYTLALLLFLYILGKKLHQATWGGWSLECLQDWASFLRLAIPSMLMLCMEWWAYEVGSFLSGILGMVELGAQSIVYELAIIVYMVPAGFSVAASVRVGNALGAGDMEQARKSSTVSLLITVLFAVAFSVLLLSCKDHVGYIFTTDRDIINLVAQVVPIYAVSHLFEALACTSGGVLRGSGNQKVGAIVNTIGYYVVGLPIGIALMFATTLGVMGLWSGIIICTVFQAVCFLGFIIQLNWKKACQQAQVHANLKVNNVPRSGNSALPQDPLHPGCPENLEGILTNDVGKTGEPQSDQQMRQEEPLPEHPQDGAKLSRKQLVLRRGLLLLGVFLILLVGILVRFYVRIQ
# Experimental: (§1) LC‐MS/MS analyses to assess metabolic stability and identify the transporter substrate were performed using an API 4000 QTRAP mass spectrometer (SCIEX, Framingham, MA) with electrospray ionization in positive mode. Chromatography was performed using an Atlantis dC18 analytical column (100 × 2.1 mm, 5 µm; Waters Corporation, Milford, MA). Mobile phases were 0.2% v/v formic acid in water and 0.2% v/v formic acid in acetonitrile. For metabolic stability experiments, FFA and metabolites were eluted at a flow rate of 0.6 mL/min, with a linear gradient of 20%−80% acetonitrile from 0.30−2.0 min. For transporter substrate experiments, the gradient was slightly modified to achieve suitable chromatography. The mass transitions monitored were 232.0 > 159.0 for FFA and 348.0 > 330.0 for 1ʹ‐OH‐midazolam‐d4 internal standard.
# (§2) FFA and nFFA were evaluated as substrates of the transporters breast cancer resistance protein (BCRP), organic anion transporter (OAT)1, OAT3, organic cation transporter (OCT)2, MATE1, MATE2‐K, and P‐glycoprotein multidrug transporter (P‐gp; also known as MDR1 and ABCB1), according to published methods.[25], [26], [27], [28], [29] Madin‐Darby canine kidney (MDCKII)‐BCRP cells (Netherlands Cancer Institute, Amsterdam, Netherlands) or human embryonic kidney (HEK)293 cells transfected with other transporters (Sekisui Medical Co., Ltd., Tokyo, Japan) were used. Transporter‐transfected and control cells were incubated with FFA or nFFA (0.1, 1, or 10 μM), and the amount of FFA and nFFA accumulated in the cells was measured by LC‐MS/MS as described above. The accumulation of positive control substrates in the presence and absence of an inhibitor served as a positive control for transporter function. […] BCRP substrate determination was made by bi‐directional permeability across MDCKII‐BCRP and control cells cultured on 24‐well transwell plates. Incubation medium containing probe substrate was added. Ten minutes later, transepithelial electrical resistance (TEER) was recorded and cells were preincubated at 37 ± 2°C for 30−60 min before FFA or nFFA or positive control substrate with the solvent control or positive control inhibitor was added to the donor (apical) chamber. […] Samples containing FFA, nFFA, or probe substrate were mixed with internal standard and analyzed by LC‐MS/MS. […] An aliquot was added to 96‐well plate containing scintillation fluid that was analyzed by a MicroBeta^2 scintillation counter (Perkin Elmer, Waltham, MA). Protein concentration was determined by a bicinchoninic acid (BCA) protein assay according to the manufacturer’s protocol (Thermo Fisher Scientific, Waltham, MA). Non‐radiolabeled compounds were resuspended in a 50:50 v/v methanol:water solution containing internal standard and were analyzed by LC‐MS/MS. […]
# BCRP = target: T2, BCRP (Homo sapiens, UniProt Q9UNQ0); experiment: Transporter substrate determination, bi-directional permeability in MDCKII-BCRP cells; assay type: in vitro ADME; design: host or cells: MDCKII; conditions: for substrate of the transporter: BCRP; for Maximum Ratio (net flux in transporter‐expressing cells to control cells): MDCKII‐BCRP, 0.1, 1, 10 µM, threshold ≥2‐fold suggests substrate
# T2 sequence (Q9UNQ0 1-655): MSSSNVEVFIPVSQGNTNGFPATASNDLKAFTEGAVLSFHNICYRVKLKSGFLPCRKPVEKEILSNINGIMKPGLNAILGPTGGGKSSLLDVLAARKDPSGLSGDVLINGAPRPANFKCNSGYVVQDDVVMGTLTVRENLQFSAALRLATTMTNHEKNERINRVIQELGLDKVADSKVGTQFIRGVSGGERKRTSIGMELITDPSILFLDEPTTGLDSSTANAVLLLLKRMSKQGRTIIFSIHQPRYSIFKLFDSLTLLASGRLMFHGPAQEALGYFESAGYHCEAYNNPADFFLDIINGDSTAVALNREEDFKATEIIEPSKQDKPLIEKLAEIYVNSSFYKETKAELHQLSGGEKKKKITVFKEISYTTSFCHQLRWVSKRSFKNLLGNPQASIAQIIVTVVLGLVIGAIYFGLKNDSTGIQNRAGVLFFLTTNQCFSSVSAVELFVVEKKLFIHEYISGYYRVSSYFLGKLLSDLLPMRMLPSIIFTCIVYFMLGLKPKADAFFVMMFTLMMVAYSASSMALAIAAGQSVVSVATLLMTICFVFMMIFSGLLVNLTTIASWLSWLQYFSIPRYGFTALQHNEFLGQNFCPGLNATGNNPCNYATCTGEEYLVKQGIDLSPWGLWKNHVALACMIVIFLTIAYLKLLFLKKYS
# Experimental: as §1, §2
compound,measurement,setting,value
"CCNC(C)Cc1cccc(C(F)(F)F)c1 (racemic) [FFA, (RS)‐ethyl (α‐methyl‐3‐trifluoromethylphenethyl)amine]",Maximum Ratio (uptake in transporter‐expressing cells to empty‐vector control cells),MATE1,1.10
same,substrate of the transporter,MATE1,not substrates
same,substrate of the transporter,BCRP,not substrates
same,Maximum Ratio (net flux in transporter‐expressing cells to control cells),BCRP,1.51
"CC(N)Cc1cccc(C(F)(F)F)c1.Cl (centres unmarked) [nFFA, 1‐(3‐(trifluoromethyl)phenyl)propan‐2‐amine hydrochloride]",Maximum Ratio (uptake in transporter‐expressing cells to empty‐vector control cells),MATE1,1.00
same,substrate of the transporter,MATE1,not substrates
same,substrate of the transporter,BCRP,not substrates
same,Maximum Ratio (net flux in transporter‐expressing cells to control cells),BCRP,1.42
